Test results: patent US6579864B1, “3-methylene steroid derivatives” (Akzo Nobel NV, priority 1999, dated 2003)

Key:
[1] = tested on: DTH reaction in Balb/c mice; assay: Delayed type hypersensitivity (DTH) reaction, Tetanus Toxoid footpad swelling; assay type: in vivo; conditions: female Balb/c mice, sc. once daily day 1-11, Tetanus Toxoid immunization day 2, challenge day 9, footpad swelling
Procedure: In the delayed type hypersensitivity (DTH) procedure, the effect of a compound on the development of an immune reaction can be observed in mice (details in example 16). Briefly, the compound is administered daily and the animals are immunized subsequently with an antigen in adjuvant. After 7 days the animals are challenged locally by injecting the antigen locally (mostly in the foot) and measuring the subsequently developing local swelling in response to the deposition of the antigen. The degree of this swelling is related to the development of an immune response against the eliciting antigen. The inhibiting action of a compound of this invention on the development of this swelling can be determined, by comparing the treatment group with a placebo treated group. As a reference treatment, administration of glucocorticoids can be used.
Groups of eight female Balb/c (Harlan, Zeist, The Netherlands) mice were used, approximately 8 weeks of age at the start of the experiment. These mice were housed in Macrolon cages, under standard conditions and acclimatized for 3-5 days before the start of the experiment. The groups received either compound or placebo.
They were weighed on day 1 and on the last treatment day. Animals were treated once daily by subcutaneous (sc) injection in the back of the neck or by oral gavage from day 1 till day 11 with a test compound in concentration range from 1.2, 3, 4, 6, to 12 mg/kg. The injection volume was 0.1 mL of a vehicle for injection consisting of physiological saline containing 0.5% gelatin and 5% mannitol. A placebo treated group (vehicle only) and a group treated with 4 mg/kg dexamethasone as reference compound were included in each experiment.
On day 2, animals were immunized with 0.1 ml of a stable suspension of 3.75 Lf Tetanus Toxoid antigen (TT from the RIVM, Zeist, The Netherlands) in 1 mg/ml dimethyl dioctadecylammonium bromide (DDA) from Phase Sep, at 2 places on the breast intradermally.
On day 9 animals were challenged on the ventral side of the right [R] paw with 0.05 mL of a solution containing 50 Lf TT and 1 mg Al(OH)3 per mL. The left [L] footpad (control) received the vehiculum with Al(OH)3 only. After 24 and 48 hours, the left and right footpad thickness (parameters L and R, respectively) were measured with a calipers densitometer in mm and the percentage of antigen-specific footpad swelling was calculated according to the formula: [(R−L)/L]×100%. Results

Compound | Amount of compound given sc. in mg/kg leading to 50% reduction of the DTH reaction as compared to placebo [1] [mg/kg] | melting point [°C]
C=C1CCC2=C(C1)C[C@@H](C)[C@@H]1[C@@H]2CC[C@]2(C)[C@@H](O)CC[C@@H]12 [example 2, (7α,17β)-7-methyl-3-methyleneestr-5(10)-en-17-ol] | 20 | 111.8
C=C1CC[C@H]2[C@@H](C1)C[C@@H](C)[C@@H]1[C@@H]2CC[C@@]2(C)[C@H]1CC[C@@]2(O)CC [example 7, (5β,7α,17α)-7-Methyl-3-methylene-19-norpregnan-17-ol] | 6 | 
C=C1CC[C@@]23O[C@]2(C1)C[C@@H](C)[C@H]1[C@@H]2CC[C@H](O)[C@@]2(C)CC[C@@H]13 [example 4, (5β,7α,17β)-5,10-epoxy-7-methyl-3-methyleneestran-17-ol] | >20 | 125
C#CC1(O)CCC2C3C(C)CC45CC(=C)CCC4(O5)C3CCC21C (stereo not drawn) [example 3, (5β,7α,17α)-5,10-epoxy-7-methyl-3-methylene-19-norpregn-20-yn-17-ol] | 11 | 
C=C[C@]1(O)CC[C@H]2[C@H]3[C@H](CC[C@@]21C)[C@H]1CCC(=C)C[C@@H]1C[C@H]3C [example 5, (5α,7α,17α)-7-methyl-3-methylene-19-norpregn-20-en-17-ol] | 10 | 
C#CC1(O)CCC2C3C(C)CC4=C(CCC(=C)C4)C3CCC21C (stereo not drawn) [example 1, (7α,17α)-7-methyl-3-methylene-19-norpregn-5(10)-en-20-yn-17-ol] | 1.9 to 3.4 | 
